Our source for the IC50 values is ChEMBL document CHEMBL1201862, “PubChem BioAssay data set” (2004).

Molecules are shown by their SMILES. Calls of active or inactive are those of the source. Cut-off read from the data, not from the text of the source: actives have a measured IC50 and inactives only a lower limit.

For the assay, the target named is Envelope glycoprotein gp160 (Human immunodeficiency virus 1, UniProt Q6QLK5). The experiment in a line: cell-free HIV fusion peptide-binding blockers – biochemical, uHTS, fluorescence dequenching, […] (AID 1986).
Envelope glycoprotein gp160, sequence (Q6QLK5 whole entry, the tested form may be a part): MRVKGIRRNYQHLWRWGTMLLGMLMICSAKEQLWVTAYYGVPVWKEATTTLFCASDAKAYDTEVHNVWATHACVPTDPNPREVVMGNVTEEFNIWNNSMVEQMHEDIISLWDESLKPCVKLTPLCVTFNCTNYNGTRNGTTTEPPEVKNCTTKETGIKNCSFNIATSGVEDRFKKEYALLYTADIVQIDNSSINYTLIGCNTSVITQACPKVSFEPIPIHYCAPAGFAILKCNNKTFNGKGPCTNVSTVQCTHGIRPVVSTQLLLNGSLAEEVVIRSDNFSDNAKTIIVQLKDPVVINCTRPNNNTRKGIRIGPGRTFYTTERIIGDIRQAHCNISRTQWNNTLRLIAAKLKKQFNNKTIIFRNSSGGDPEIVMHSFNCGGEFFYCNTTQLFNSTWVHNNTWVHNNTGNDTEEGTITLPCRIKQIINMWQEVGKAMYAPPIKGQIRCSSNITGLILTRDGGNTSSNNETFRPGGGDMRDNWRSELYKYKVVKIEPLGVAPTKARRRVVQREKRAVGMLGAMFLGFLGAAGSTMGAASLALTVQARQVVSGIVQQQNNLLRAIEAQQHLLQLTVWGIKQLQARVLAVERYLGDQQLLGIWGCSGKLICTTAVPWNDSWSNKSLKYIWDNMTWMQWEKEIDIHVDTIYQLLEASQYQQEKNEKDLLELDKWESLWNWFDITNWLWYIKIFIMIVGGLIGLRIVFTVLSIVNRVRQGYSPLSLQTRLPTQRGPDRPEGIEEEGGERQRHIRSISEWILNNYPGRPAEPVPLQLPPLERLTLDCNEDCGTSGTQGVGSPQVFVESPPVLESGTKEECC
Regarding `COc1ccc(/N=C2\S/C(=C\c3ccc(OC(C)C(=O)O)c(OC)c3)C(=O)N2CCc2c[nH]c3ccccc23)cc1` (stereo not given), the 50% inhibitory concentration (IC50) (in general, the point on the concentration scale where inhibition reaches its midpoint) is 18.9 µM (active). The result for `O=C(O)CSc1ncnc2c1sc1nc(-c3ccccc3)c3c(c12)CCC3` reads 28 µM (active). The result for `COc1cc(/C=C2/SC(=S)N(CC(=O)O)C2=O)ccc1OCC(=O)Nc1ccc(C)c(C)c1` reads 17.9 µM (active); that for `CS(=O)(=O)C1=NSC2=NC(=O)/C(=C\c3ccc(OS(=O)(=O)c4ccccc4)cc3)C(=N)N21`, 18.2 µM (active).

For `O=C(O)COc1ccc(/C=C/C(=O)c2ccc(C3CCCCC3)cc2)cc1`, the IC50 was 17.7 µM (active).
